“Also recorded” adds a separate entry of the source.
Columns and labels:
mouse DRG neurons [1] = test: Current-clamp recording of action potentials elicited by mechanical stimuli in mouse DRG neurons; format: cell-based
From the text: Subsequent sweeps had increments of 1 μm.

mouse DRG neurons [2] = test: Electrical excitability of mouse DRG neurons (voltage-gated currents, membrane potential, current injection); format: cell-based
[3] = system: mechano-activated currents of DRG neurons; test: Bradykinin sensitization of mechano-activated currents in mouse DRG neurons; format: cell-based
mice [4] = test: Hargreaves radiant heat test after daily hind paw injection; format: in vivo, mouse; conditions: MA 5 mM injected daily into hind paw for 7 days
Description: (§1) Mice behavior: MA solution: MA was prepared in sterile Dulbecco's phosphate buffered saline, with 70 g/L fatty acid free bovine serum albumin (BSA; Sigma), and MA to a final concentration of 5 mM. The solution was filtered to avoid undissolved materials.
(§2) Subjects: For the experiment 8-12 weeks old male and female C57B16/J mice (N=12; control n=6; male=3, female=3) MA (n=6; male=3, female=3) per experiment were used. Mice were housed under a 12 hr light dark cycle and granted access to food and water ad libitum.
Treatment: Animals were put in two groups (control and MA) and given injections in the plantar of the left hind paw for 7 days prior behavioral assessment. Injections were given as follows: Mouse is restrained by their tail, foot, and over shoulders scruff. The compound is delivered using a 3/10 cc insulin syringe into the plantar surface of the back foot of each mouse. The beveled needle is inserted at a 35-40° angle and 20-50 μl of the compound is injected subcutaneously. The needle is held in place for several seconds before being removed and the animal is returned to its home cage. […]
Thermal threshold (Hargreaves test): Animals were placed in small enclosures over a glass plate heated to 32° C. […] The latency for each rodent to withdraw the paw is recorded with three stimulus presentations administered per paw. […]

mice [5] = test: Von Frey test after acute inflammation by topical AITC; format: in vivo, mouse; conditions: MA treatment for 7 days, then AITC
Description: as §1, §2
Treatment: Animals were put in two groups (control and MA) and given injections in the plantar of the left hind paw for 7 days prior behavioral assessment. Injections were given as follows: Mouse is restrained by their tail, foot, and over shoulders scruff. […]
Mechanical threshold (Von Frey test): Punctate mechanical allodynia was measured using Von Frey monofilaments (Stoelting, Inc.) in varying grams of force (0.008-1 g). Animals were placed in small enclosures over a wire mesh and the plantar of the hind paw was poked with a filament and responses were recorded. Withdrawal responses were recorded when the animal lifted, shook, or licked the paw in response to stimulus presentation. […]

Piezo2 V16 = test: Whole-cell patch-clamp of N2A^Piezo1−/− cells transfected with Piezo2 V16; conditions: 300 μM; 18 h
[6] = system: mechano-activated currents of mouse DRG neurons; test: Whole-cell patch-clamp of mechano-activated currents in cultured mouse DRG neurons; conditions: 300 μM
PIEZO1 = PIEZO1 (Mus musculus, UniProt E2JF22); test: Whole-cell patch-clamp with mechanical indentation of N2A cells expressing endogenous Piezo1; conditions: IC50 of inhibition of PIEZO1 currents, mean±SEM
mouse PIEZO2 [7] = biological target: mouse PIEZO2 (Mus musculus, UniProt Q8CD54); test: Whole-cell patch-clamp with mechanical indentation of N2A^Piezo1−/− cells transfected with Piezo2 variant 2 (V2); conditions: for IC50: IC50 of inhibition of PIEZO2 currents, mean±SEM
mouse PIEZO2 (Mus musculus, UniProt Q8CD54), sequence (Q8CD54 whole entry): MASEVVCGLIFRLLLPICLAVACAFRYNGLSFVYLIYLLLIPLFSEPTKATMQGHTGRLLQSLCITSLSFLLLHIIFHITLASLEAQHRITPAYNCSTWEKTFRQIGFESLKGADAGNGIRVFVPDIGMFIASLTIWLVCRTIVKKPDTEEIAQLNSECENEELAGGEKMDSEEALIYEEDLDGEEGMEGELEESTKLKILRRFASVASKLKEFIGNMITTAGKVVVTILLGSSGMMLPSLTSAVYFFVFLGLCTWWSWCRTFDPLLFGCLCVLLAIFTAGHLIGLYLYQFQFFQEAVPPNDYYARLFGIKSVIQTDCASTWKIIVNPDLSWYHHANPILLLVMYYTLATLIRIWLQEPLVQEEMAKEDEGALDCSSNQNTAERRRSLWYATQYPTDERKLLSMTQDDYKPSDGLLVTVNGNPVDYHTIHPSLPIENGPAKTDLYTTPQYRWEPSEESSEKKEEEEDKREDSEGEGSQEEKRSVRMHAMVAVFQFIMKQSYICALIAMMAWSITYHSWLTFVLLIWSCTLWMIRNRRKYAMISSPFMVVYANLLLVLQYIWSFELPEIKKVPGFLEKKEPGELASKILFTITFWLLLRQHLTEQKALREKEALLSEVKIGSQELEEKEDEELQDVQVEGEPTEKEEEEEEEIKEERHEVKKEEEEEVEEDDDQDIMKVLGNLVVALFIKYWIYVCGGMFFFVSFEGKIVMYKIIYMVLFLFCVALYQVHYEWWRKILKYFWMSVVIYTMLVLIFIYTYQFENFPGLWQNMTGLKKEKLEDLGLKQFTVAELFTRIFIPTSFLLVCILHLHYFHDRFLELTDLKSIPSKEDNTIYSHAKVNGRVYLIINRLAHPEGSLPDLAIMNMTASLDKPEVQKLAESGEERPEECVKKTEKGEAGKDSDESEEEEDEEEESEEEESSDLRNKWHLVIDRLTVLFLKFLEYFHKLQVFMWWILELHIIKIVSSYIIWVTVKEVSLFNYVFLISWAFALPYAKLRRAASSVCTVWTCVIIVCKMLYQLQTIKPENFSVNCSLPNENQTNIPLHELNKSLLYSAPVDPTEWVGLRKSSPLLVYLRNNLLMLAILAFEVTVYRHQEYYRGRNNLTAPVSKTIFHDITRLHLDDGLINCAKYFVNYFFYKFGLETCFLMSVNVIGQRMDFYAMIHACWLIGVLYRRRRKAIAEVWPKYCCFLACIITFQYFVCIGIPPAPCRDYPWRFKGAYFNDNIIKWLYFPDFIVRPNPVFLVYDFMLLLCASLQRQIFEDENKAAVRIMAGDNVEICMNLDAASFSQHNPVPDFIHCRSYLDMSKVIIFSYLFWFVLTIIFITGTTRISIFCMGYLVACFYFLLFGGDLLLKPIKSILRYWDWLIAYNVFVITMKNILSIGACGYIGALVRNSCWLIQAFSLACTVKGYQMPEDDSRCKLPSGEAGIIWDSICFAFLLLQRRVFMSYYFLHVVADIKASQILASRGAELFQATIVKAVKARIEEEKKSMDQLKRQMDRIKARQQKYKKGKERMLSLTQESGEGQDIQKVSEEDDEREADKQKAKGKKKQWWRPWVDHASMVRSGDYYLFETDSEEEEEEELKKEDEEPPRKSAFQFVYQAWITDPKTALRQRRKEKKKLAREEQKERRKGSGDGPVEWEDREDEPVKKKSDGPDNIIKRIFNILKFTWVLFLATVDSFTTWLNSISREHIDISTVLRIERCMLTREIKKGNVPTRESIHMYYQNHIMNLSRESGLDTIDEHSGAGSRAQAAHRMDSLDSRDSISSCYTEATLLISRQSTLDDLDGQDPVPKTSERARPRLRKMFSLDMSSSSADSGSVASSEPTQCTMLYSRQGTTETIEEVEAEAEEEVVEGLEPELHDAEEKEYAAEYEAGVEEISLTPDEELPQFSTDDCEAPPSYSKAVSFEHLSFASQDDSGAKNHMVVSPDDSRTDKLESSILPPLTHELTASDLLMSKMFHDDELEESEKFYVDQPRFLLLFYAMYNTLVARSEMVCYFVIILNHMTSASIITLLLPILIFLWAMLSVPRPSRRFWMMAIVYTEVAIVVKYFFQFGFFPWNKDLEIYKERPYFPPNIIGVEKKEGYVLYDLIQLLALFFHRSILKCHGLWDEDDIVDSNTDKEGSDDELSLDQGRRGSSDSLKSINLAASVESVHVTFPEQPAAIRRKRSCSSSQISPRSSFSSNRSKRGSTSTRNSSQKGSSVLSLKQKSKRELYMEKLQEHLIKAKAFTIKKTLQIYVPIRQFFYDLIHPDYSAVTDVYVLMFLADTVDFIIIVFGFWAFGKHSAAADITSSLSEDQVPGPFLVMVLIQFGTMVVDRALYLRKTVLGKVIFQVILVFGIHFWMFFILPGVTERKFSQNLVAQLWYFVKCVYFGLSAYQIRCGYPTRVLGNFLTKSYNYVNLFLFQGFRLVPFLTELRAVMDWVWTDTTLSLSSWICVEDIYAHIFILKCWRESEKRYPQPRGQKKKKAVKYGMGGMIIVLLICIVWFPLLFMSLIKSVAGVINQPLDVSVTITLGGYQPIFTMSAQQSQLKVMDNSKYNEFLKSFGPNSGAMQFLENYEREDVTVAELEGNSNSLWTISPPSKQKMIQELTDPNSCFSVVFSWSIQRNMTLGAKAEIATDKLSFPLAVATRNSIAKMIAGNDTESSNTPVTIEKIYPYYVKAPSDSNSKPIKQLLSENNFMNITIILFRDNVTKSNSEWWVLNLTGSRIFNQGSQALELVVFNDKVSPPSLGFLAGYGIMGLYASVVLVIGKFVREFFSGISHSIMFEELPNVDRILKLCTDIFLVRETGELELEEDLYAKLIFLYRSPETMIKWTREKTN

mouse PIEZO2 [8] = test: as above; conditions: from IC50 values

IC50 (PIEZO1; MA 1-300 μM 18 h): 28.3 ± 3.4 µM | IC50 (PIEZO1; latrunculin A-treated cells, MA 1-300 μM 18 h plus latrunculin A): 25.6 µM | effect on PIEZO2 inactivation (mouse PIEZO2 [7]; 50 μM each day for 4 days): without altering PIEZO2 inactivation | effect on displacement threshold (mouse PIEZO2 [7]; 50 μM each day for 4 days): increases the displacement threshold | decrease of PIEZO2 currents (mouse PIEZO2 [7]; 50 μM each day over four days): 65% | IC50 (mouse PIEZO2 [7]; MA 1-600 μM overnight (18 h), normalized current densities at maximum displacement, Boltzmann fit): 191 ± 14.7 µM | IC50 (mouse PIEZO2 [7]; latrunculin A-treated cells, MA 1-600 μM 18 h plus latrunculin A 1 μM for 1 h): 75.4 ± 13.3 µM | MA concentration required to decrease PIEZO2 currents (mouse PIEZO2 [7]; overnight supplementation): higher than 100 μM | increase of displacement threshold required to elicit PIEZO2 currents vs control cells (mouse PIEZO2 [7]; overnight supplementation): three fold
Compound: CCCCCCCCCCCCCCCCC(=O)O [MA, heptadecanoic acid]
action potential firing elicited by mechanical stimuli (mouse DRG neurons [1]; 300 μM): reduces neuronal action potential firing elicited by mechanical stimuli; also recorded: decreases action potentials elicited by mechanical stimuli; also recorded: specifically decrease action potential firing evoked by mechanical stimulation | indentation steps eliciting action potentials (mouse DRG neurons [1]; 300 μM, control 7-12 μm): 12 μm | action potential generation (mouse DRG neurons [1]; 300 μM, indentation steps smaller than 12 μm): completely inhibits action potential generation | mechanical threshold required to fire action potentials (mouse DRG neurons [1]; MA supplementation): increases the mechanical threshold required for DRG neurons to fire action potentials | action potentials evoked by 1 Hz mechanical stimulus trains (mouse DRG neurons [1]; MA-enriched neurons vs control): evoked less action potentials than the control | electrical excitability (mouse DRG neurons [2]; 300 μM): does not alter mouse DRG neurons electrical excitability; also recorded: does not alter DRG neuronal electrical excitability | action potential firing elicited by current injection (mouse DRG neurons [2]; 300 μM vs control): no difference in action potential firing elicited by current injection | amplitudes of voltage-activated inward Na+ and outward K+ currents (mouse DRG neurons [2]; 300 μM vs control): no significant differences | membrane potential (mouse DRG neurons [2]; 300 μM, whole-cell configuration): did not alter membrane potential | current density after bradykinin administration ([3]; MA 300 μM 18 h, bradykinin 1 μM perfusion, 10 μm displacement, mean±SD, control 3.36±1.68): 3.64±1.96 pA/pF | mechano-currents after sensitization with bradykinin ([3]; MA 300 μM 18 h, acute bradykinin 1 μM): decreases the mechano-currents, even after sensitization with bradykinin | current densities after combined overnight incubation with bradykinin ([3]; bradykinin 1 μM and MA 300 μM, 18 h both): restored the current densities to those of control neurons | thermal withdrawal latencies / hyper-responsiveness to heat (mice [4]): did not affect the ability of mice to sense thermal stimuli; also recorded: has no effect on this hyper-responsiveness to heat; also recorded: had no effect on thermal withdrawal latencies | responses to von Frey filaments after topical AITC (mice [5]): does not increase hyper-responsivity to punctate stimuli; also recorded: responded with sensitivities similar to their basal response | effect on activity of Piezo2 V16 (Piezo2 V16): inhibited the activity | effect on displacement threshold [6]: increasing the displacement threshold | effect on mechano-evoked currents ([6]; rapidly, intermediate and slowly inactivating currents): inhibit all mechanosensitive currents; also recorded: decreases mechano-activated currents; also recorded: decreased the current magnitude of all DRG neurons mechano-evoked currents | effect on PIEZO2 currents (mouse PIEZO2 [7]; 1-600 μM overnight): inhibits heterologously-expressed mouse PIEZO2 currents; also recorded: inhibits PIEZO2 currents in a concentration-dependent manner | effect on time constant of inactivation (mouse PIEZO2 [7]; overnight supplementation): without affecting the time constant of inactivation | times more MA needed to inhibit PIEZO2 than PIEZO1 (mouse PIEZO2 [8]): ~ 7 times

Source: patent US12714688B2, “Margaric acid decreases PIEZ02-mediated pain” (The United States of America, as represented by The …, priority 2020, dated 2026)
